Assay: log P by HPLC on a reversed-phase column (C 18), EEC Directive 79/831 Annex V.A8
Type: physicochemical
Conditions: HPLC on reversed-phase column (C 18), 40° C., 0.1% aqueous formic acid and acetonitrile, linear gradient 10% to 90% acetonitrile
Description: In table 1, the log P values were determined in accordance with EEC Directive 79/831 Annex V.A8 by HPLC (High Performance Liquid Chromatography) on a reversed-phase column (C 18), using the method described below: Temperature: 40° C.; Mobile phases: 0.1% aqueous formic acid and acetonitrile; linear gradient from 10% acetonitrile to 90% acetonitrile. Calibration was carried out using unbranched alkan-2-ones (comprising 3 to 16 carbon atoms) with known log P values (determination of the log P values by the retention times using linear interpolation between two successive alkanones). lambda-max-values were determined using UV-spectra from 200 nm to 400 nm and the peak values of the chromatographic signals.
`Cc1ccc(-c2cnn(C)c2)c(CN(C(=O)c2cn(C)nc2C(F)F)[C@@H]2C[C@H]2C)c1` (relative stereo) [I.62] showed a logP of 2.66.
In the case of `Cc1ccc(-c2cnn(C)c2)c(CN(C(=O)c2c(C(F)F)nn(C)c2F)[C@@H]2C[C@H]2C)c1` (relative stereo) [I.63], the logP was 2.82.
For `Cc1ccc(-c2cnn(C)c2)c(CN(C(=O)c2c(C(F)F)nn(C)c2Cl)[C@@H]2C[C@H]2C)c1` (relative stereo) [I.64], the logP was 2.86.
Compound `Cn1nc(C(F)F)c(C(=O)N(Cc2ccccc2C2COC2)C2CC2)c1Cl` [I.2] has a logP of 1.56.
Work on `Cn1nc(C(F)F)c(C(=O)N(Cc2c(C3(C)CO3)ccc(Cl)c2Cl)C2CC2)c1F` (centres unmarked) [I.9] yielded a logP of 3.55.
`Cn1nc(C(F)F)c(C(=O)N(Cc2c(C3(C)CO3)ccc(Cl)c2F)C2CC2)c1Cl` (centres unmarked) [I.10] showed a logP of 3.37.
Work on `Cn1nc(C(F)F)c(C(=O)N(Cc2c(C3(C)CO3)ccc(Cl)c2Cl)C2CC2)c1Cl` (centres unmarked) [I.11] yielded a logP of 3.67.
Compound `Cc1ccc(C2(C)CO2)c(CN(C(=O)c2c(C(F)F)nn(C)c2F)C2CC2)c1F` (centres unmarked) [I.12] has a logP of 3.17.
`Cn1nc(C(F)F)c(C(=O)N(Cc2c(C3(C)CO3)ccc(Cl)c2F)C2CC2)c1F` (centres unmarked) [I.13] gave a logP of 3.29.
`Cn1nc(C(F)F)c(C(=O)N(Cc2cc(C34CCCC3O4)ccc2Cl)C2CC2)c1F` (centres unmarked) [I.17] showed a logP of 3.59.
Work on `Cn1nc(C(F)F)c(C(=O)N(Cc2cc(Cl)ccc2C23CCCC2O3)C2CC2)c1F` (centres unmarked) [I.18] yielded a logP of 3.60.
In the case of `Cn1nc(C(F)F)c(C(=O)N(Cc2ccccc2C23CCCC2O3)C2CC2)c1F` (centres unmarked) [I.19], the logP was 3.12.
`Cn1nc(C(F)F)c(C(=O)N(Cc2ccccc2C2(C)OCCO2)C2CC2)c1F` [I.20] gave a logP of 2.94.
With `Cc1ccc(CN(C(=O)c2c(C(F)F)nn(C)c2F)C2CC2)c(C2(C)OCCO2)c1` [I.21] the logP was 3.25.
With `Cn1nc(C(F)F)c(C(=O)N(Cc2cc(C34CCCCC3O4)ccc2Cl)C2CC2)c1F` (centres unmarked) [I.22] the logP was 3.99.
Work on `Cn1nc(C(F)F)c(C(=O)N(Cc2cc(Cl)ccc2C23CCCCC2O3)C2CC2)c1F` (centres unmarked) [I.23] yielded a logP of 3.99.
`Cn1nc(C(F)F)c(C(=O)N(Cc2ccccc2C23CCCCC2O3)C2CC2)c1F` (centres unmarked) [I.24] showed a logP of 3.48.
`Cn1nc(C(F)F)c(C(=O)N(Cc2cc(Cl)ccc2C23CCCCCC2O3)C2CC2)c1F` (centres unmarked) [I.25] showed a logP of 4.44.
With `Cn1nc(C(F)F)c(C(=O)N(Cc2ccccc2C23CCCCCC2O3)C2CC2)c1F` (centres unmarked) [I.26] the logP was 3.94.
`Cn1nc(C(F)F)c(C(=O)N(Cc2ccccc2-c2ccco2)C2CC2)c1Cl` [I.30] gave a logP of 3.46.
`O=C(c1ccsc1I)N(Cc1ccccc1-c1ccco1)C1CC1` [I.33] gave a logP of 4.01.
For `Cc1ccc(-c2ccoc2)c(CN(C(=O)c2cn(C)nc2C(F)F)C2CC2)c1` [I.38], the logP was 3.19.
Compound `O=C(c1ccsc1I)N(Cc1cc(-c2ccco2)ccc1Cl)C1CC1` [I.41] has a logP of 4.61.
For `Cn1cc(C(=O)N(Cc2ccccc2-c2ccco2)C2CC2)c(C(F)F)c1` [I.42], the logP was 3.44.
`Cc1nc(C(F)F)c(C(=O)N(Cc2cc(-c3ccco3)ccc2Cl)C2CC2)s1` [I.46] showed a logP of 3.99.
With `Cc1ccc(-c2ccn(C)c2)c(CN(C(=O)c2c(C(F)F)nn(C)c2F)C2CC2)c1` [I.51] the logP was 3.55.
For `Cc1ccc(-c2ccn(C)c2)c(CN(C(=O)c2cn(C)nc2C(F)F)C2CC2)c1` [I.52], the logP was 3.19.
With `Cc1ccc(-c2ccn(C)c2)c(CN(C(=O)c2c(C(F)F)nn(C)c2Cl)C2CC2)c1` [I.53] the logP was 3.69.
`CC(C)c1ccc(-c2cnn(C)c2)cc1CN(C(=O)c1c(C(F)F)nn(C)c1F)C1CC1` [I.65] gave a logP of 3.13.
For `Cn1nc(C(F)F)c(C(=S)N(Cc2ccccc2-c2ccsc2)C2CC2)c1Cl` [I.80], the logP was 4.39.
`Cn1nc(C(F)F)c(C(=S)N(Cc2ccccc2-c2cccs2)C2CC2)c1Cl` [I.81] gave a logP of 4.49.
`Cn1nc(C(F)F)c(C(=O)N(Cc2cc(-c3cccs3)ccc2Cl)C2CC2)c1Cl` [I.85] gave a logP of 4.29.
For `O=C(c1ccsc1I)N(Cc1cc(-c2ccsc2)ccc1Cl)C1CC1` [I.89], the logP was 4.78.
Compound `Cn1cc(C(=O)N(Cc2cc(-c3cccs3)ccc2Cl)C2CC2)c(C(F)F)c1` [I.90] has a logP of 4.16.
Work on `O=C(c1ccsc1I)N(Cc1cc(-c2cccs2)ccc1Cl)C1CC1` [I.91] yielded a logP of 4.91.
`Cn1cc(C(=O)N(Cc2cc(-c3ccsc3)ccc2Cl)C2CC2)c(C(F)F)c1` [I.92] gave a logP of 4.06.
In the case of `Cn1nc(C(F)F)c(C(=O)N(Cc2cc(-c3ccsc3)ccc2Cl)C2CC2)c1Cl` [I.94], the logP was 4.16.
For `Cc1nc(C(F)F)c(C(=O)N(Cc2cc(-c3ccsc3)ccc2Cl)C2CC2)s1` [I.96], the logP was 4.14.
`Cc1nc(C(F)F)c(C(=O)N(Cc2cc(-c3cccs3)ccc2Cl)C2CC2)s1` [I.97] showed a logP of 4.26.
For `Cc1cc(C(=O)N(Cc2cc(-c3ccsc3)ccc2Cl)C2CC2)c(C)o1` [I.98], the logP was 4.59.
`Cc1cc(C(=O)N(Cc2cc(-c3cccs3)ccc2Cl)C2CC2)c(C)o1` [I.99] showed a logP of 4.72.
Compound `Cc1ccc(-c2cscc2C)c(CN(C(=O)c2c(C(F)F)nn(C)c2Cl)C2CC2)c1` [I.107] has a logP of 4.41.
Compound `Cc1ccc(-c2cscc2C)c(CN(C(=O)c2cn(C)nc2C(F)F)C2CC2)c1` [I.109] has a logP of 3.83.
`Cc1cscc1-c1ccc(C(C)C)c(CN(C(=O)c2c(C(F)F)nn(C)c2F)C2CC2)c1` [I.110] gave a logP of 4.72.
Compound `Cc1ccc(-c2c(C)nn(C)c2C)c(CN(C(=O)c2c(C(F)F)nn(C)c2F)C2CC2)c1` [I.115] has a logP of 2.71.
In the case of `Cc1ccc(-c2c(C)nn(C)c2C)c(CN(C(=O)c2cn(C)nc2C(F)F)C2CC2)c1` [I.116], the logP was 2.45.
Compound `Cc1ccc(-c2c(C)nn(C)c2C)c(CN(C(=O)c2c(C(F)F)nn(C)c2Cl)C2CC2)c1` [I.117] has a logP of 2.80.
With `Cc1nn(C)c(C)c1-c1ccc(C(C)C)c(CN(C(=O)c2c(C(F)F)nn(C)c2F)C2CC2)c1` [I.118] the logP was 3.23.
In the case of `COc1ccsc1-c1ccc(C)cc1CN(C(=O)c1cn(C)nc1C(F)F)C1CC1` [I.124], the logP was 3.46.
`COc1ccsc1-c1ccc(C)cc1CN(C(=O)c1c(C(F)F)nn(C)c1Cl)C1CC1` [I.126] showed a logP of 3.99.
In the case of `COc1ccsc1-c1ccc(C)cc1CN(C(=O)c1c(C(F)F)nn(C)c1F)C1CC1C` (centres unmarked) [I.127], the logP was 4.21.
Compound `COc1ccsc1-c1ccc(C)cc1CN(C(=O)c1c(C(F)F)nn(C)c1Cl)C1CC1C` (centres unmarked) [I.128] has a logP of 4.41.
With `Cc1ccc(-c2coc3ccccc23)c(CN(C(=O)c2c(C(F)F)nn(C)c2Cl)C2CC2)c1` [I.133] the logP was 4.49.
In the case of `Cc1ccc(-c2coc3ccccc23)c(CN(C(=O)c2cn(C)nc2C(F)F)C2CC2)c1` [I.135], the logP was 3.89.
`Cn1nc(C(F)F)c(C(=S)N(Cc2ccccc2-c2ccc(Cl)s2)C2CC2)c1Cl` [I.142] gave a logP of 5.19.
Work on `O=C(c1ccsc1I)N(Cc1cc(Cl)ccc1-c1ccc(Cl)s1)C1CC1` [I.147] yielded a logP of 5.68.
Compound `Cc1ccc(-c2ccsc2Cl)c(CN(C(=O)c2c(C(F)F)nn(C)c2Cl)C2CC2)c1` [I.148] has a logP of 4.44.
`Cc1ccc(-c2ccsc2Cl)c(CN(C(=O)c2cn(C)nc2C(F)F)C2CC2)c1` [I.149] showed a logP of 3.85.
In the case of `Cc1nc(C(F)F)c(C(=O)N(Cc2cc(-c3ccc(Cl)s3)ccc2Cl)C2CC2)s1` [I.151], the logP was 5.00.

Same assay, conditions: HPLC, C 18, 40° C., 0.1% aqueous formic acid and acetonitrile
`CC(C)c1ccc(Cl)cc1C=NO` [1-(5-chloro-2-isopropylphenyl)-N-hydroxymethanimine] gave a logP of 3.17.

Same assay, conditions: reversed-phase HPLC column (C 18), HPLC, C 18, 40° C., 0.1% aqueous formic acid and acetonitrile; read-out: logP
Compound `CC(C)c1ccc(Cl)cc1C=NO` [1-(5-chloro-2-isopropylphenyl)-N-hydroxymethanimine] has a chromatographic logP of 2.9.
Compound `CC(C)c1ccc(Cl)cc1CN` [1-(5-chloro-2-isopropylphenyl)methanamine] has a chromatographic logP of 1.2.
